Data on one molecule can be found in patent US20210261538A1, “PROTEIN ARGININE METHYLTRANSFERASE 5 (PRMT5) DEGRADATION / DISRUPTION COMPOUNDS AND METHODS OF USE” (ICAHN SCHOOL OF MEDICINE AT MOUNT SINAI, priority 2018, published 2021).

Structures are written as SMILES. “Also recorded” adds a separate entry of the source.

Series [1] addresses T1, PRMT5 (Homo sapiens, UniProt O14744). The series is described as follows: Western blot of PRMT5 protein levels in Jurkat cells. Format: cell-based. Further details: endogenous in cells. As to conditions: 5 μM, 6 days. The protocol: (§1) MCF-7 cells, HEK293T cells and HeLa cells were cultured in Dulbecco's Modified Eagle Medium (DMEM) supplemented with 10% fetal bovine serum (FBS) in 5% CO2 at 37° C. Jurkat cells were cultured in RPMI 1640 medium supplemented with 10% FBS in 5% CO2 at 37° C. H2171 cells were cultured in HITES medium supplemented with 10% FBS in 5% CO2 at 37° C. HCT116 were cultured in McCoy's 5A medium supplemented with 10% fetal bovine serum (FBS) in 5% CO2 at 37° C. All the cells lines were treated with 5 μM (or indicated concentration) of PRMT5 inhibitor (EPZ015666) or degraders, or equivalent volume of DMSO for 6 days (or indicated time points). Fresh compounds were constituted in medium and used for every 2 days. The antibodies used in this study are: PRMT5 antibody (Active Motif), (3-actin antibody (Sigma), SDMA antibody (collaboration with Cell Signaling Technologies). Cell cultures were harvested at the end of compound treatments and applied subjected to western blotting assay. Briefly, cells were washed with PBS and lysed with RIPA lysis buffer for 20 minutes on ice. Then lysates were centrifuged and the clear supernatant were collected. SDS loading buffer was added to the lysates and then the mixture was boiled at 100° C. for 5 minutes. Samples were loaded to 10% or 12% SDS-PAGE gel and ran at 120V for 1.5 hours. […]
(In general: A western blot detects proteins with antibodies after separation by electrophoresis.)

Series [2] deals with T1, PRMT5. The series is described as follows: Western blot of PRMT5 protein levels in HeLa cells. The format is cell-based. On the set-up: endogenous in cells. As to conditions: 5 μM, 6 days. The protocol:
as §1

Another series deals with MCF-7 cells. Nature of the series: Cell proliferation assay (Cell-Titer Glo) in MCF-7 cells. As to conditions: 5 μM, 10 days. Format: cell-based. On the procedure:
The same starting number of MCF-7 cells were treated with DMSO, 5 μM EPZ015666 or YS43-22 for up to 10 days. Every two days, fresh compounds were constituted in DMEM medium and added to the cell culture. Relative cell numbers were counted every two days (i.e. day 0, 2, 4, 6, 8 and 10) using Cell-Titer Glo kit (Promega). MCF-7 cells were treated with DMSO, EPZ015666 (5 μM), or YS43-22 (5 μM) for 10 days.

Series [3] has as its target T1, PRMT5. The series is described as follows: Western blot of PRMT5 protein levels in HCT116 cells. Further details: endogenous in cells. The format is cell-based. The settings on record: 5 μM, 6 days. The protocol:
as §1

Series [4] deals with T1, PRMT5. The series is described as follows: Western blot of PRMT5 protein levels in multiple cell lines. The format is cell-based. Further details: endogenous in cells; host or cells: MCF-7. As to conditions: MCF-7, Hela, Jurkat, HCT116, 293T and H2171 cells, 5 μM, 6 days. On the procedure: as §1
Series [5] deals with T1, PRMT5. Nature of the series: Western blot of PRMT5 protein levels in 293T cells. As to conditions: 5 μM, 6 days. Format: cell-based. On the set-up: endogenous in cells; host or cells: 293T (HEK293T). On the procedure: as §1
The nature of series [6]: Standard PK study in mice. The format is in vivo, male Swiss Albino mice. The settings on record: single 150 mg/kg IP injection. The protocol: Standard PK studies were conducted using male Swiss Albino mice. A single 150 mg/kg intraperitoneal (IP) injection of YS43-22 was evaluated. Plasma concentrations of YS43-22 reported at each of the six time points (15 min, 30 min, 1 h, 2 h, 6 h, and 12 h post dosing) are the average values from 3 test animals.

The target of series [7] is T1, PRMT5. Nature of the series: Western blot of PRMT5 protein levels in MCF-7 cells. Format: cell-based. On the set-up: endogenous in cells; host or cells: MCF-7. The protocol:
MCF-7 cells, HEK293T cells and HeLa cells were cultured in Dulbecco's Modified Eagle Medium (DMEM) supplemented with 10% fetal bovine serum (FBS) in 5% CO2 at 37° C. Jurkat cells were cultured in RPMI 1640 medium supplemented with 10% FBS in 5% CO2 at 37° C. H2171 cells were cultured in HITES medium supplemented with 10% FBS in 5% CO2 at 37° C. HCT116 were cultured in McCoy's 5A medium supplemented with 10% fetal bovine serum (FBS) in 5% CO2 at 37° C. All the cells lines were treated with 5 μM (or indicated concentration) of PRMT5 inhibitor (EPZ015666) or degraders, or equivalent volume of DMSO for 6 days (or indicated time points). Fresh compounds were constituted in medium and used for every 2 days. The antibodies used in this study are: PRMT5 antibody (Active Motif), (3-actin antibody (Sigma), SDMA antibody (collaboration with Cell Signaling Technologies). Cell cultures were harvested at the end of compound treatments and applied subjected to western blotting assay. Briefly, cells were washed with PBS and lysed with RIPA lysis buffer for 20 minutes on ice. Then lysates were centrifuged and the clear supernatant were collected. SDS loading buffer was added to the lysates and then the mixture was boiled at 100° C. for 5 minutes. Samples were loaded to 10% or 12% SDS-PAGE gel and ran at 120V for 1.5 hours. Then the proteins were transferred to PVDF membrane and blocked in 5% milk fat at room temperature for 1 hour. Then the membranes were incubated with indicated antibodies at 4° C. overnight. Membranes were washed with PBST buffer three times for 10 minutes each time and incubated with HRP-conjugated (horse radish peroxidase) secondary antibodies at room temperature for 1 hour. Again the membranes were washed with PBST buffer three times for 10 minutes each time. Finally, the indicated proteins on the membranes were visualized with ECL (enhanced chemiluminescence) reagents. MCF-7 cells were treated with DMSO or indicated compounds at 5 μM for 6 days. […] MCF-7 cells were treated with DMSO or indicated serial dilutions of compounds for 6 days. The PRMT5 protein levels were determined by Western blot.

T1 sequence (O14744 whole entry): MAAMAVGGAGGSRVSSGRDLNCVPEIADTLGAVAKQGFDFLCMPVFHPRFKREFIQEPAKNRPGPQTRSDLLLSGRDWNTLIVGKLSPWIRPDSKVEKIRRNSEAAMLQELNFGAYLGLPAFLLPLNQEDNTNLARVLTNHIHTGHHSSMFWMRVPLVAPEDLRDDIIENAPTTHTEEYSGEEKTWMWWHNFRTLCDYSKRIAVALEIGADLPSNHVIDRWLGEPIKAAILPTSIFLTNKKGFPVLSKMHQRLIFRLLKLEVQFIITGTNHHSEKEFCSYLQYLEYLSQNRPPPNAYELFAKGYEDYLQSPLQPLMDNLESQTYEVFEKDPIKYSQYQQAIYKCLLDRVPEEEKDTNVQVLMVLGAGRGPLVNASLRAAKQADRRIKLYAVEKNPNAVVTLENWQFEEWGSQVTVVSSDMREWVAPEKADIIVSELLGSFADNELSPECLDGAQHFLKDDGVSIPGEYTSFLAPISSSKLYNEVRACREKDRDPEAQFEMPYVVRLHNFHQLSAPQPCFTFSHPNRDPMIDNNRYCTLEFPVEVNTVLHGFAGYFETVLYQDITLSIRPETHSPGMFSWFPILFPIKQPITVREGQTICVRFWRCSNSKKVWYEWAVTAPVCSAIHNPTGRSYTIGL
T1 sequence (Q9BQA1 whole entry partner): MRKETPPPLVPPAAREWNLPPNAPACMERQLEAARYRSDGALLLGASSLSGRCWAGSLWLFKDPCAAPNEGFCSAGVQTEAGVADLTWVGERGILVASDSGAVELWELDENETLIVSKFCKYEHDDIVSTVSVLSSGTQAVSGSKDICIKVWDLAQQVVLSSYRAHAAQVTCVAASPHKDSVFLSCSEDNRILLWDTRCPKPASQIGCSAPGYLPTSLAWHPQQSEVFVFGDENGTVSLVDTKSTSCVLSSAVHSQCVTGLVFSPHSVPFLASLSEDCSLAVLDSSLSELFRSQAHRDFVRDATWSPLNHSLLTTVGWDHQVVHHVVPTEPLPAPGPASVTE

With `Cc1ncsc1-c1ccc([C@H](C)NC(=O)[C@@H]2C[C@@H](O)CN2C(=O)[C@@H](NC(=O)COCCOCCOCCOCCOCC(=O)N2CC(Nc3cc(C(=O)NC[C@H](O)CN4CCc5ccccc5C4)ncn3)C2)C(C)(C)C)cc1` [YS43-22, N-((S)-3-(3,4-dihydroisoquinolin-2(1H)-yl)-2-hydroxypropyl)-6-((1-((S)-19-((2S,4R)-4-hydroxy-2-(((S)-1-(4-(4-methylthiazol-5-yl)phenyl)ethyl)carbamoyl)pyrrolidine-1-carbonyl)-20,20-dimethyl-17-oxo-3,6,9,12,15-pentaoxa-18-azahenicosanoyl)azetidin-3-yl)amino)pyrimidine-4-carboxamide], the PRMT5 protein levels result at PRMT5 [1] was “very well”; on PRMT5 [2], “moderately”; on PRMT5 [3] it was “slightly”; on PRMT5 [5] it was “slightly”; on PRMT5 [7] (MCF-7 cells, 5 μM, 6 days, Western blot), “very well”. Further, the “cell growth of MCF-7 cells” value in the series on MCF-7 cells was “significantly reduced; also recorded: significant potency; also recorded: significantly inhibited”. Also, on PRMT5 [4], the “PRMT5 protein levels in different cell lines” value is given as “significantly reduced”. Further, the “relative potency in down-regulation of PRMT5 protein levels” value at PRMT5 [4] is “more potent than YS43-8”. In series [6], the clinical observations result is listed as “no abnormal clinical observations”. The “bioavailability (plasma concentrations)” value in series [6] (15 min to 12 h post dosing, 150 mg/kg) is “Bioavailable”. Besides, at PRMT5 [7] (MCF-7 cells (Examples 90-92)), the “suppressing PRMT5 expression” value is reported as “especially effective”. Also, the “PRMT5 protein levels, concentration and time dependence” value on PRMT5 [7] (MCF-7 cells, serial dilutions of compounds, 6 days, Western blot) is “concentration- and time-dependent; also recorded: significantly reduced”.
